In one assay the target is ERK2 (Homo sapiens (Human), UniProt P28482). Kind of assay: Active ERK1 and ERK2 Kinase Assay (Mobility Shift Assay). The assay is classed as biochemical. The settings on record: activated ERK2, Mobility Shift Assay. In a few lines:
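Mobility shift assay: compound preincubated with activated kinase 30 min at rt in 20 mM HEPES pH 7.5, 0.01% Triton X-100, 2 mM DTT. Reaction started with fluorescent substrate, ATP and metal, run 1 h at rt; activity taken as product ratio P/(P+S) after LabChip peptide separation.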

The test system of the next assay is A375 (melanoma) cells. As to the kind of experiment: Proliferation Assay (CellTiter-Glo). It is filed as cell-based. Particulars: 3 days incubation, CellTiter-Glo luminescence. The method in brief: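 A375 cells in RPMI-1640 with 10% FBS, plated overnight, then exposed to 10-point 3-fold serial compound dilutions for 3 days at 37° C, 5% CO2. Viability read by CellTiter-Glo luminescence.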
For orientation: ATP-based viability assays read luminescence as a measure of living cells.

Molecules are shown by their SMILES.

ERK2, sequence (P28482 whole entry): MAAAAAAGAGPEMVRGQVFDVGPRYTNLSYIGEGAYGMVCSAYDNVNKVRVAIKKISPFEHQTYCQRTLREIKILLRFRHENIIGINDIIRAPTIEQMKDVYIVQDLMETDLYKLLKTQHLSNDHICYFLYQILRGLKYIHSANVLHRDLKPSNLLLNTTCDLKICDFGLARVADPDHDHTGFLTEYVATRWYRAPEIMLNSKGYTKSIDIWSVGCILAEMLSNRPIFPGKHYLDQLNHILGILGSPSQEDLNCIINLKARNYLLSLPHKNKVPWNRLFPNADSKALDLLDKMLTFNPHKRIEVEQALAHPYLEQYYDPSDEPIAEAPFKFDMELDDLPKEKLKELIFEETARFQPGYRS

Usually IC50 stands for the midpoint of a concentration-inhibition curve. As for `Cn1cnc(-c2ccc(C3=CCN(C(=O)CN4CC[C@]5(CCN(c6ccc7[nH]nc(C89CC(C8)C9)c7c6)C5=O)C4)CC3)cc2)n1` [Example 72, (S)-2-(3-(Bicyclo[1.1.1]pentan-1-yl)-1H-indazol-5-yl)-7-(2-(4-(4-(1-methyl-1H-1,2,4-triazol-3-yl)phenyl)-5,6-dihydropyridin-1(2H)-yl)-2-oxoethyl)-2,7-diazaspiro[4.4]nonan-1-one], the IC50 at ERK2 was not above 50 nM; with A375 (melanoma) cells (Homo sapiens, A-375, 72 h) it was 500 to 1000 nM.

As for `Cn1cnc(-c2ccc(C3=CCN(C(=O)CN4CC[C@]5(CCN(c6ccc7[nH]nc(C89CC(C#N)(C8)C9)c7c6)C5=O)C4)CC3)cc2)n1` [Example 73, (S)-3-(5-(7-(2-(4-(4-(1-Methyl-1H-1,2,4-triazol-3-yl)phenyl)-5,6-dihydropyridin-1(2H)-yl)-2-oxoethyl)-1-oxo-2,7-diazaspiro[4.4]nonan-2-yl)-1H-indazol-3-yl)bicyclo[1.1.1]pentane-1-carbonitrile], the IC50 was not above 50 nM at ERK2 and 500 to 1000 nM in the assay with A375 (melanoma) cells (Homo sapiens, A-375, 72 h).

Regarding `COc1cnc(-c2n[nH]c3ccc(N4CC[C@]5(CCN(CC(=O)N6CCC(c7ccc(-c8ncn(C)n8)cc7)CC6)C5)C4=O)cc23)c(F)c1` [Example 74], the figures for the concentration for half-maximal inhibition (IC50) on ERK2 and in the assay on A375 (melanoma) cells were not above 50 nM and 500 to 1000 nM, respectively.

Turning to `CC(C)Sc1ccc(-c2n[nH]c3ccc(N4CC[C@]5(CCN(CC(=O)N6CC=C(c7ccc(-c8ncn(C)n8)cc7)CC6)C5)C4=O)nc23)cn1` [Example 76], the figures for the IC50 at ERK2 and in the assay with A375 (melanoma) cells were not above 50 nM and not above 500 nM, respectively.

Consider `Cn1cnc(-c2ccc(C3=CCN(C(=O)CN4CC[C@]5(CCN(c6ccc7[nH]nc(-c8ccc(OC9CCC9)nc8)c7n6)C5=O)C4)CC3)cc2)n1` [Example 77], for which the IC50 on ERK2 is not above 50 nM; in the assay on A375 (melanoma) cells, not above 500 nM.

For the compound `Cc1ccc(-c2n[nH]c3ccc(N4CC[C@]5(CCN(CC(=O)N6CCC(c7ccc(-c8ncn(C)n8)cc7)CC6)C5)C4=O)nc23)cn1` [Example 79], the figures for the concentration for half-maximal inhibition (IC50) at ERK2 and with A375 (melanoma) cells were not above 50 nM and not above 500 nM, respectively.

For the compound `Cc1ccc(-c2n[nH]c3ccc(N4CC[C@]5(CCN(CC(=O)N6CCC(c7ncc(-c8ncn(C)n8)s7)CC6)C5)C4=O)nc23)cn1` [Example 80], the half-inhibitory concentration (IC50) is not above 50 nM on ERK2 and not above 500 nM in the assay on A375 (melanoma) cells (Homo sapiens, A-375, 72 h).

With `CCOc1ccc(-c2n[nH]c3ccc(N4CC[C@]5(CCN(CC(=O)N6CC=C(c7ccc(-c8ncn(C)n8)cc7)CC6)C5)C4=O)nc23)cn1` [Example 81], the IC50 at ERK2 was not above 50 nM; in the assay with A375 (melanoma) cells, not above 500 nM.

Take `CC(C)Oc1ccc(-c2n[nH]c3ccc(N4CC[C@]5(CCN(CC(=O)N6CCN(c7ccc(-c8ncn(C)n8)cc7)CC6)C5)C4=O)nc23)cn1` [Example 82]: the concentration for half-maximal inhibition (IC50) is not above 50 nM at ERK2 and not above 500 nM in the assay with A375 (melanoma) cells.

For `CC(C)Oc1ccc(-c2n[nH]c3ccc(N4CC[C@]5(CCN(CC(=O)N6CCN(c7ccc(-c8ncn(C)n8)cn7)CC6)C5)C4=O)nc23)cn1` [Example 84], the IC50 at ERK2 was not above 50 nM; in the assay with A375 (melanoma) cells, not above 500 nM.

As for `CC(C)Oc1ccc(-c2n[nH]c3ccc(N4CC[C@]5(CCN(CC(=O)N6CC=C(c7ccc(-c8ncn(CCO)n8)cc7)CC6)C5)C4=O)nc23)cn1` [Example 89], the half-maximal inhibitory concentration (IC50) on ERK2 was not above 50 nM; with A375 (melanoma) cells, not above 500 nM.

`CC(C)c1nc2cc(-c3n[nH]c4ccc(N5CC[C@]6(CCN(CC(=O)N7CC=C(c8ccc(-c9ncn(C)n9)cc8)CC7)C6)C5=O)nc34)ccc2o1` [Example 91]: the IC50 is not above 50 nM at ERK2 and 500 to 1000 nM with A375 (melanoma) cells.

`COc1ccc(-c2n[nH]c3ccc(N4CC[C@]5(CCN(CC(=O)N6CC=C(c7ccc(-c8ncn(C)n8)cc7)CC6)C5)C4=O)nc23)cc1OC` [Example 92]: the IC50 at ERK2 was not above 50 nM; in the assay with A375 (melanoma) cells it was not above 500 nM.

As to `COc1ccc(-c2n[nH]c3ccc(N4CC[C@]5(CCN(CC(=O)N6CC=C(c7ccc(-c8ncn(C)n8)cc7)CC6)C5)C4=O)nc23)nc1OC` [Example 93], the 50% inhibitory concentration (IC50) was not above 50 nM at ERK2 and not above 500 nM with A375 (melanoma) cells.

(Values after US10934304B2, “Spirocyclic compounds” (Recurium IP Holdings, LLC, priority 2016, dated 2021).)
